Data taken from patent US9428519B2, “Acylated derivative of homoharringtonine, preparation method therefor, and application thereof” (HANGZHOU BENSHENG PHARMACEUTICAL CO., LTD., priority 2011, dated 2016).

Test: Body weight and toxicity in tumor-bearing BALB/c-nu nude mice
Type: in vivo
Conditions: for Weight (g) Final / Weight (g) Initial: 10 days
Method: Animal: BALB/c-nu nude mice, 8 weeks, female, purchased from Shanghai Laboratory Animal Center of Chinese Academy of Sciences, China.
BS-HH-002, wherein BS-HH-002-0.1 indicates a dosage of 0.1 mg/kg each time, BS-HH-002-0.3 indicates a dosage of 0.3 mg/kg each time, BS-HH-002-0.5 indicates a dosage of 0.5 mg/kg each time, and BS-HH-002-1.0 indicates a dosage of 1.0 mg/kg each time.
Under sterile conditions, the above tumor cells in logarithmic growth phase are collected and injected in an amount of 2×10^7/0.2 ml/nude mice (cell viability>95%) into the right subaxillary of the nude mice by subcutaneous injection, thus establishing a BALB/c-nu nude mice model bearing transplanted tumor of gastric cancer. The mice are administered on the third day after the inoculation, wherein the experimental groups are intragastrically administered in an experimentally designed amount, and the negative control group is intragastrically administered with sterile water. Administration takes place at 8:00 for one time a day, at 8:00 and 14:00 for twice a day, and at 8:00, 14:00 and 20:00 with 6-hour intervals for three times day. The administrations are successive for 10 days. The day before administration is Day 0 and the weight and tumor size are determined approximately every 5 days to produce a plot on weight and tumor growth. On Day 27, the mice are dissected and the tumors are taken out and weighed. Based on a tumor inhibition rate of zero for the control group, the tumor inhibition rate (%) after the effect of the medicament is calculated.
The values determined are presented as mean±standard error (M±SD). The experimental data for each group are analyzed by the One-way ANOVA method of SPSS 18.0 Statistical Software, and p<0.05 is deemed as having statistically significant difference.

[1] = 0.1 mg/kg/time, 1 time/day intragastric
[2] = 0.1 mg/kg/time, 2 times/day intragastric
[3] = 0.1 mg/kg/time, 3 times/day intragastric
[4] = 0.3 mg/kg/time, 1 time/day intragastric
[5] = 0.5 mg/kg/time, 1 time/day intragastric
[6] = 0.5 mg/kg/time, 2 times/day intragastric
[7] = 0.5 mg/kg/time, 3 times/day intragastric
[8] = 1.0 mg/kg/time, 1 time/day intragastric
[9] = 1.0 mg/kg/time, 3 times/day intragastric

## COC(=O)C[C@](O)(CCCC(C)(C)OC(C)=O)C(=O)O[C@@H]1C(OC)=C[C@]23CCCN2CCc2cc4c(cc2[C@H]13)OCO4 [BS-HH-002, 6-acetylhomoharringtonine]
[1]
  Weight (g) Final: 27.18 ± 3.62 g
  Weight (g) Initial: 18.88 ± 0.56 g
[2]
  Weight (g) Final: 25.63 ± 1.06 g
  Weight (g) Initial: 21.35 ± 0.34 g
[3]
  Weight (g) Final: 28.50 ± 2.83 g
  Weight (g) Initial: 24.58 ± 0.39 g
[4]
  Weight (g) Final: 24.30 ± 1.38 g
  Weight (g) Initial: 18.98 ± 0.51 g
[5]
  Weight (g) Final: 25.78 ± 1.15 g
  Weight (g) Initial: 20.10 ± 0.22 g
[6]
  Weight (g) Final: 26.68 ± 1.42 g
  Weight (g) Initial: 22.28 ± 0.43 g
[7]
  Weight (g) Final: 26.33 ± 2.76 g
  Weight (g) Initial: 23.50 ± 0.37 g
[8]
  Weight (g) Final: 25.95 ± 0.94 g
  Weight (g) Initial: 20.45 ± 0.76 g
[9]
  Weight (g) Final: 29.98 ± 1.32 g
  Weight (g) Initial: 26.98 ± 0.75 g
All dosages 0.1-1.0 mg/kg
  toxic and side effect: none of the dosages causes obvious toxic and side effect
All groups, until Day 27
  animal deaths until dissection: none of the animals has died
